Data as given in US20250289804A1, “SUBSTITUTED INDOLE COMPOUNDS AND METHODS OF USE THEREOF” (NOVARTIS PHARMA AG, priority 2021, published 2025).
pIC50: −log10 of the molar value. Where two headings read alike, the source gives them in different places.

Columns and labels:
[1] = biological target: human C3bBb (Homo sapiens (Human), UniProt P00751); test: Human C3bBb enzyme assay (C3a generation from C3, ELISA); type: biochemical; conditions: read-out: Human C3b:Bb IC50 Avg
Experimental: Compounds disclosed herein were evaluated for their potency to inhibit human C3bBb in a biochemical assay. To generate active C3bBb complex in vitro, purified human C3b (Complement Technology, A114), CFB (Complement Technology, A135) and CFD (Complement Technology, A136) were mixed in a 1:1:1 ratio to a final concentration of 1 μM each in the C3bBb assay buffer (PBS pH 7.4, 100 μM NiCl2, 0.05% (w/v) CHAPS). The reaction mix was incubated at room temperature for 30 minutes on a rotating platform. […] On the day of the enzyme assay, a reaction mixture containing 3 nM C3bBb complex and 1 μM purified human C3 (Complement Technology, A113) was prepared in the C3bBb assay buffer. Compounds were serial diluted 3-fold in 100% DMSO for a 10-point dose-response curve. A 0.5 μL aliquot of diluted compound solution was transferred to a conical bottom 96-well plate, before 49.5 μL of the reaction mix was added to each well to initiate the reaction. The plate was incubated for 1 hour at room temperature. […] The generation of C3a from C3 by the C3bBb complex was measured using the MicroVue C3a Plus EIA ELISA kit (Quidel, A031). The concentration of C3a from each well was calculated using a standard curve. Percent inhibition values were generated using the baseline (C3 only) and the maximum control (DMSO instead of compound), and IC50 of each compound was calculated using 4-parameter logistic regression.

[2] = test system: MAC formation in normal human serum; test: Human serum MAC formation assay (zymosan-coated plates, 50% normal human serum); conditions: 50% normal human serum with EGTA, 37° C. 30 minutes
Experimental: MAC deposition assay using normal human serum was applied to evaluate compound potency under physiologically relevant conditions. Black Maxisorp plates (Thermo Fisher, 437111) were coated with preactivated zymosan (Complement Technology, B400) at 0.5 mg/mL in carbonate buffer (pH 9.5, Sigma, C3041) at room temperature overnight. Compounds were serial diluted 3-fold in 100% DMSO for a 10-point dose-response curve. Normal human serum (Complement Technology, NHS) was diluted to 50% (v/v) with the gelatin buffer (4.2 mM HEPES pH 7.4, 0.15 mM CaCl2, 141 mM NaCl, 4.5 mM MgCl2, 0.1% gelatin) containing 20 mM EGTA or 20 mM EDTA. In conical bottom 96-well plates, 1 μL compound and 99 μL of serum-EGTA were mixed. Serum-EDTA was used as baseline control. The serum-compound mixture was incubated at room temperature for 15 minutes before being transferred to the washed zymosan plate for complement activation at 37° C. for 30 minutes. The reaction was terminated by decanting the reaction mixture and adding blocking buffer (Thermo Fisher, 37539) for 20 minutes. MAC formation on the ELISA plate was detected using 0.2 μg/mL mouse anti-human C9 neoepitope monoclonal antibody (Thermo Fisher, MA5-33373) diluted in phosphate-buffered saline with 0.05% Tween-20 (PBST). A goat anti-mouse IgG-HRP antibody (Thermo Fisher, A16072) was used at 1:2000 in PBST as secondary antibody. After washing, the reaction was developed using QuantaBlu (Thermo Fisher, 15169) for 20 minutes at room temperature. The plates were read at 325 nm excitation and 420 nm emission wavelengths. Percent inhibition values were generated using the baseline (EDTA-serum) and the maximum control (EGTA-serum). An IC50 for each compound was calculated using 4-parameter logistic regression.

[3] = starred values: assay conducted with 1 nM C3b:Bb enzyme
[4] = 3 nM C3bBb complex, 1 μM human C3, 1 hour room temperature

Sequence of human C3bBb (P00751 260-764): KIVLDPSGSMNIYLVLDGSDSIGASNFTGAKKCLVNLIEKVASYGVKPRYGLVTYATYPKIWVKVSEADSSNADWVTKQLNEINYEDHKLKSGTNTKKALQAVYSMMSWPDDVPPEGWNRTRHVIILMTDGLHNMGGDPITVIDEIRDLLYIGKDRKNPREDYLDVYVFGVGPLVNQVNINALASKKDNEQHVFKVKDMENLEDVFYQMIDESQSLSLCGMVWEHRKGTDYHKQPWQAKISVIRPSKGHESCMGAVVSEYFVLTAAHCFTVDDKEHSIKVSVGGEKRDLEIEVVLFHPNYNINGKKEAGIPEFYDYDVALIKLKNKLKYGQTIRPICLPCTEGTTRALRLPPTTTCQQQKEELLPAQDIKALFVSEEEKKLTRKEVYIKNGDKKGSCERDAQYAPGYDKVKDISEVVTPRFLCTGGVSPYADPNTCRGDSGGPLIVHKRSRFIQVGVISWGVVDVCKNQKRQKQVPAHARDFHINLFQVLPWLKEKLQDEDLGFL
Sequence of human C3bBb (P01024 23-667 partner): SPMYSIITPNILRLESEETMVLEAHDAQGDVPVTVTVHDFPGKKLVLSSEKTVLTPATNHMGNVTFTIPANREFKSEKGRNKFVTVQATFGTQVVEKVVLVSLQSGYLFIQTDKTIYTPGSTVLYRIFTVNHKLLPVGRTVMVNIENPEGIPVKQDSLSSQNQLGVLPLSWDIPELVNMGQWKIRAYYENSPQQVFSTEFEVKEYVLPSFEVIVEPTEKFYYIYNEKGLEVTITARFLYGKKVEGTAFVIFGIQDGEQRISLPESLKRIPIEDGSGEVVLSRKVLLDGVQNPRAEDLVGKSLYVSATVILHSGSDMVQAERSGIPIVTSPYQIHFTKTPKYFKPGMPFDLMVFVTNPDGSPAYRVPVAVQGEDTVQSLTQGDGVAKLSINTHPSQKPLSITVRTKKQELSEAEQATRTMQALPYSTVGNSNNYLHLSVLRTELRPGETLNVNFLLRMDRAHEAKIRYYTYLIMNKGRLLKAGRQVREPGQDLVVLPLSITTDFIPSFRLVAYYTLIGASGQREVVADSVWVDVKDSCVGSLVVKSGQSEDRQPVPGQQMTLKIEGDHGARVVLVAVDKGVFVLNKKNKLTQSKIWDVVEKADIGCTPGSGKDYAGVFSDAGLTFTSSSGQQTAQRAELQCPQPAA
Sequence of human C3bBb (P01024 749-1663 partner): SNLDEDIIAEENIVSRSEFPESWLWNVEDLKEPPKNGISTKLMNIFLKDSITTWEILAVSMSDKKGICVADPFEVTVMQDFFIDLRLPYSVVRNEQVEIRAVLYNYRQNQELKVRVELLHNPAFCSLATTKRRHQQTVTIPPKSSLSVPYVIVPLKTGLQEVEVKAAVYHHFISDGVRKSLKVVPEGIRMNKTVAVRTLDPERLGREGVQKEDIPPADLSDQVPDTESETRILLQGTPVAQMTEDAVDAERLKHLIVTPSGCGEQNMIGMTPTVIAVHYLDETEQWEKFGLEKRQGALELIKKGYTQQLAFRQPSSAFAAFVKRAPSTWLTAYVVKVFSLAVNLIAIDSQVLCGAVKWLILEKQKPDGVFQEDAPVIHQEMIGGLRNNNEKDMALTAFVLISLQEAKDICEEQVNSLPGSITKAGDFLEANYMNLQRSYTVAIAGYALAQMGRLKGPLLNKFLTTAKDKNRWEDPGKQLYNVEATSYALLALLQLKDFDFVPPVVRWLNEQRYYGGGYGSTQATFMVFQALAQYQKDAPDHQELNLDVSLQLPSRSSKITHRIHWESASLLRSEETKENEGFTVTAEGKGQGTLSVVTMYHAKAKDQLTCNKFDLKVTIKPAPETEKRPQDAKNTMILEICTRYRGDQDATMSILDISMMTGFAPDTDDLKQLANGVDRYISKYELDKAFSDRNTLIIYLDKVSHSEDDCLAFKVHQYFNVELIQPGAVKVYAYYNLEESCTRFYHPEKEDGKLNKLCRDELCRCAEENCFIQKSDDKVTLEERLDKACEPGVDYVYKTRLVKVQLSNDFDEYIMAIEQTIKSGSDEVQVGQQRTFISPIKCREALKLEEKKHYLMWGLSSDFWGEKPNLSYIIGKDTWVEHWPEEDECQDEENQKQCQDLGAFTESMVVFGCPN

Row | pIC50 [1, 3] | pIC50 [1, 4] | Compound | pIC50 [2]
1 | 7.60 to 8.00 | – | COc1cc(C)c2[nH]ccc2c1CN1CC[C@]2(C[C@H]1c1ccc(C(=O)O)cc1)C[C@@H](O)C2 (stereo in doubt) [Example 64, 4-((2R,4s,6S)-4-(2-hydroxy-7-((5-methoxy-7-methyl-1H-indol-4-yl)methyl)-7-azaspiro[3.5]nonan-6-yl)benzoic acid and 4-((2S,4r,6S)-2-hydroxy-7-((5-methoxy-7-methyl-1H-indol-4-yl)methyl)-7-azaspiro[3.5]nonan-6-yl)benzoic acid] | 6.52 to 6.70
2 | – | 7.00 to 7.30 | COc1cc(C)c2[nH]ccc2c1CN1CC[C@H](n2cc(F)cn2)C[C@H]1c1ccc(C(=O)O)cc1 [Example 1, 4-((2S,4S)-4-(4-fluoro-1H-pyrazol-1-yl)-1-((5-methoxy-7-methyl-1H-indol-4-yl)methyl)piperidin-2-yl)benzoic acid] | < 6.30
3 | – | > 8.00 | COc1cc(C)c2[nH]ccc2c1CN1CC[C@H](n2cc(C(F)(F)F)cn2)C[C@H]1c1ccc(C(=O)O)cc1 [Example 4, 4-((2S,4S)-1-((5-methoxy-7-methyl-1H-indol-4-yl)methyl)-4-(4-(trifluoromethyl)-1H-pyrazol-1-yl)piperidin-2-yl)benzoic acid] | 6.52 to 6.70
4 | > 8.00 | – | COc1cc(C)c2[nH]ccc2c1CN1CC[C@H](n2cc(Cl)cn2)C[C@H]1c1ccc(C(=O)O)cc1 [Example 8] | > 7.00
5 | – | 7.00 to 7.30 | COc1cc(C)c2[nH]ccc2c1CN1CC[C@H](n2cc(C#N)cn2)C[C@H]1c1ccc(C(=O)O)cc1 [Example 10, 4-((2S,4S)-4-(4-cyano-1H-pyrazol-1-yl)-1-((5-methoxy-7-methyl-1H-indol-4-yl)methyl)piperidin-2-yl)benzoic acid] | 6.30 to 6.52
6 | > 8.00 | – | COc1cc(C)c2[nH]ccc2c1CN1CC[C@H](NCC(F)(F)F)C[C@H]1c1ccc(C(=O)O)cc1 [Example 15, 4-((2S,4S)-1-((5-methoxy-7-methyl-1H-indol-4-yl)methyl)-4-((2,2,2-trifluoroethyl)amino)piperidin-2-yl)benzoic acid] | > 7.00
7 | > 8.00 | – | COc1cc(C)c2[nH]ccc2c1CN1CC[C@H](NC2COC2)C[C@H]1c1ccc(C(=O)O)cc1 [Example 18, 4-((2S,4S)-1-((5-methoxy-7-methyl-1H-indol-4-yl)methyl)-4-(oxetan-3-ylamino)piperidin-2-yl)benzoic acid] | 6.70 to 7.00
8 | > 8.00 | – | COc1cc(C)c2[nH]ccc2c1CN1CC[C@H](NC2CC(F)(F)C2)C[C@H]1c1ccc(C(=O)O)cc1 [Example 19, 4-((2S,4S)-4-((3,3-difluorocyclobutyl)amino)-1-((5-methoxy-7-methyl-1H-indol-4-yl)methyl)piperidin-2-yl)benzoic acid] | > 7.00
9 | – | 7.30 to 7.60 | COc1cc(C)c2[nH]ccc2c1CN1CC[C@H](NC2CCC2)C[C@H]1c1ccc(C(=O)O)cc1 [Example 20, 4-((2S,4S)-4-(cyclobutylamino)-1-((5-methoxy-7-methyl-1H-indol-4-yl)methyl)piperidin-2-yl)benzoic acid] | 6.30 to 6.52
10 | – | < 7.00 | COc1cc(C)c2[nH]ccc2c1CN1CC[C@H](NC23CC(C2)C3)C[C@H]1c1ccc(C(=O)O)cc1 [Example 21, 4-((2S,4S)-4-(bicyclo[1.1.1]pentan-1-ylamino)-1-((5-methoxy-7-methyl-1H-indol-4-yl)methyl)pyiperidin-2-yl)benzoic acid] | 6.70 to 7.00
11 | > 8.00 | – | COc1cc(C)c2[nH]ccc2c1CN1CC[C@H](NCC(F)F)C[C@H]1c1ccc(C(=O)O)cc1 [Example 22, 4-((2S,4S)-4-((2,2-difluoroethyl)amino)-1-((5-methoxy-7-methyl-1H-indol-4-yl)methyl)piperidin-2-yl)benzoic acid] | 6.70 to 7.00
12 | 7.00 to 7.30 | – | COc1cc(C)c2[nH]ccc2c1CN1CC[C@H](NCC2(F)CC2)C[C@H]1c1ccc(C(=O)O)cc1 [Example 23, 4-((2S,4S)-4-(((1-fluorocyclopropyl)methyl)amino)-1-((5-methoxy-7-methyl-1H-indol-4-yl)methyl)piperidin-2-yl)benzoic acid] | 6.30 to 6.52
13 | 7.60 to 8.00 | – | COc1cc(C)c2[nH]ccc2c1CN1CC[C@H](NC2CC(F)(F)C2)C[C@H]1c1ccc(C(=O)O)cc1 [Example 24, 4-((2S,4S)-4-((3,3-difluorocyclobutyl)amino)-1-((5-methoxy-7-methyl-1H-indol-4-yl)methyl)piperidin-2-yl)benzoic acid] | 6.52 to 6.70
14 | > 8.00 | – | Cc1cc(C2CC2)c(CN2CC[C@H](NC3CC(F)(F)C3)C[C@H]2c2ccc(C(=O)O)cc2)c2cc[nH]c12 [Example 25, 4-((2S,4S)-1-((5-cyclopropyl-7-methyl-1H-indol-4-yl)methyl)-4-((3,3-difluorocyclobutyl)amino)piperidin-2-yl)benzoic acid] | > 7.00
15 | 7.00 to 7.30 | – | COc1cc(C)c2[nH]ccc2c1CN1CC[C@H](NCC2CC2)C[C@H]1c1ccc(C(=O)O)cc1 [Example 26, 4-((2S,4S)-4-((cyclopropylmethyl)amino)-1-((5-methoxy-7-methyl-1H-indol-4-yl)methyl)piperidin-2-yl)benzoic acid] | 6.70 to 7.00
16 | > 8.00 | – | COc1cc(C)c2[nH]ccc2c1CN1CC[C@H](OC(F)F)C[C@H]1c1ccc(C(=O)O)cc1 [Example 28, 4-((2S,4S)-4-(difluoromethoxy)-1-((5-methoxy-7-methyl-1H-indol-4-yl)methyl)piperidin-2-yl)benzoic acid] | 6.70 to 7.00
17 | – | < 7.00 | COc1cc(C)c2[nH]ccc2c1CN1CC[C@@H](OC(F)F)C[C@@H]1c1ccc(C(=O)O)cc1 [Example 29, 4-((2R,4R)-4-(difluoromethoxy)-1-((5-methoxy-7-methyl-1H-indol-4-yl)methyl)piperidin-2-yl)benzoic acid] | < 6.30
18 | > 8.00 | – | COc1cc(C)c2[nH]ccc2c1CN1CCC2(COC2)C[C@H]1c1ccc(C(=O)O)cc1 [Example 32, (S)-4-(7-((5-methoxy-7-methyl-1H-indol-4-yl)methyl)-2-oxa-7-azaspiro[3.5]nonan-6-yl)benzoic acid] | > 7.00
19 | – | 7.00 to 7.30 | COc1cc(C)c2[nH]ccc2c1CN1CC[C@H](c2ccccn2)C[C@H]1c1ccc(C(=O)O)cc1 [Example 38, 4-((2S,4S)-1-((5-methoxy-7-methyl-1H-indol-4-yl)methyl)-4-(pyridin-2-yl)piperidin-2-yl)benzoic acid] | 6.52 to 6.70
20 | – | < 7.00 | COc1cc(C)c2[nH]ccc2c1CN1CC2(CCC2)[C@H]1c1ccc(C(=O)O)cc1 [Example 40, (R)-4-(2-((5-methoxy-7-methyl-1H-indol-4-yl)methyl)-2-azaspiro[3.3]heptan-1-yl)benzoic acid] | 6.30 to 6.52
21 | > 8.00 | – | COc1cc(C)c2[nH]ccc2c1CN1CC[C@H](CCC(F)(F)F)C[C@H]1c1ccc(C(=O)O)cc1 [Example 42, 4-((2S,4S)-1-((5-methoxy-7-methyl-1H-indol-4-yl)methyl)-4-(3,3,3-trifluoropropyl)piperidin-2-yl)benzoic acid] | 6.52 to 6.70
22 | > 8.00 | – | COc1cc(C)c2[nH]ccc2c1CN1CC[C@H](CC2CC2)C[C@H]1c1ccc(C(=O)O)cc1 [Example 44, 4-((2S,4S)-4-(cyclopropylmethyl)-1-((5-methoxy-7-methyl-1H-indol-4-yl)methyl)piperidin-2-yl)benzoic acid] | > 7.00

Row | Compound | pIC50 [1, 3] | pIC50 [1, 4] | pIC50 [2]
23 | COc1cc(C)c2[nH]ccc2c1CN1CC[C@H](N2CCCC2=O)C[C@H]1c1ccc(C(=O)O)cc1 [Example 13, 4-((2S,4S)-1-((5-methoxy-7-methyl-1H-indol-4-yl)methyl)-4-(2-oxopyrrolidin-1-yl)piperidin-2-yl)benzoic acid] | 7.00 to 7.30 | – | 6.70 to 7.00
